Results taken from patent US9572807B2, “Protocols for treatment of major depressive disorder (MDD)” (NEURALSTEM, INC., priority 2014, dated 2017).

Key:
Format in all cases: in vivo, human
[1] = tested on: patients with symptomatic MDD; experiment: qEEG pharmacodynamic measurement; conditions: pre vs 6 hours post-dose on Day 14 and Day 28; prominent in left posterior temporal and parietal regions; lower HFα with placebo
Experimental: A double-blind, placebo-controlled, multiple-ascending-dose study employing the compound of formula (1) was performed in patients with symptomatic MDD. Twenty-four subjects were recruited, with their diagnosis and illness severity confirmed through an independent, remote SAFER interview (Targum, S. D., et al., CNS Neurosci. Ther. (2008) 14:2-9) from the Massachusetts General Hospital (MGH) Clinical Trials Network and Institute (CTNI) raters. Each patient underwent a screening for eligibility (Day −37 to Day −6 or −3) and eligible patients were admitted into the unit on Day −5 to complete their wash-out and be reconfirmed for eligibility and for baseline assessments. The patients received daily dosing of formula (1) or placebo for 28 days starting on Day 1 and were followed for safety, pharmacokinetics (PK) and pharmacodynamics (PD) until discharge. […]
In addition to safety, pharmacokinetic and the behavioral ratings scales described in Example 2, qEEG measurements were obtained 6 hours post-dose on Days 14 and 28 for 20 minutes at rest. EEGs were recorded using 19-standard International 10/20 System scalp locations plus electromyography (EMG) and eye movement monitoring. Digital EEGs recorded using Cadwell Laboratories instrumentation, were reviewed to identify the presence of physiological and instrumentation prior to analyses. […]

[2] = tested on: patients with symptomatic MDD; experiment: Cognitive and Physical Functioning Questionnaire (CPFQ), Phase 1B study; conditions: for Cohen's d value, CPFQ (ANCOVA): all test groups (n=18) vs placebo (n=6)
Experimental: (§1) A double-blind, placebo-controlled, multiple-ascending-dose study employing the compound of formula (1) was performed in patients with symptomatic MDD. Twenty-four subjects were recruited, with their diagnosis and illness severity confirmed through an independent, remote SAFER interview (Targum, S. D., et al., CNS Neurosci. Ther. (2008) 14:2-9) from the Massachusetts General Hospital (MGH) Clinical Trials Network and Institute (CTNI) raters. Each patient underwent a screening for eligibility (Day −37 to Day −6 or −3) and eligible patients were admitted into the unit on Day −5 to complete their wash-out and be reconfirmed for eligibility and for baseline assessments. The patients received daily dosing of formula (1) or placebo for 28 days starting on Day 1 and were followed for safety, pharmacokinetics (PK) and pharmacodynamics (PD) until discharge. At the conclusion of in-house dosing (Day 28), patients remained in the unit for up to 3 additional days, at the psychiatrist's discretion. On Day 35 (±3), Day 42 (±3), Day 49 (±3) and Day 70 (±3) outpatient follow-up visits took place. Patients returned to the unit for extensive follow-up on Day 56 (±3) and Day 84 (±3) (End-of-study).
(§2) The subjects were randomized into four groups of 6 patients each to receive 40 mg of formula (1) per dose administered orally in gelatin capsules once daily, twice daily or three times daily to provide 40 or 80 or 120 mg daily of formula (1) or placebo for 28 days. Each cohort included at least 3 female subjects. In this example, qEEG was used to characterize pharmacodynamic effects.
(§3) In this example, the results of the study of Example 1 were evaluated by the efficacy assessments that included the Montgomery-Asberg Depression Rating Scale (MADRS), the Clinician Global Impression-Improvement (CGI-I), the Symptoms of Depression Questionnaire (SDQ) and the Cognitive and Physical Functioning Questionnaire (CPFQ). […] These improvements persisted over time during the follow-up for MADRS, SDQ and CPFQ.
(§4) Baseline values were adjusted for initial differences and the results for the placebo group (n=6) and the tested groups (n=18) were collapsed. The sizes of the effects were estimated as Cohen's d group mean differences where d=0.20 indicates only a small difference, d=0.50 indicates a medium difference and d=0.80 indicates a large difference. Cohen's d values are described in Cohen, J. (1988) Statistical Power Analysis for the Behavioral Sciences (2nd ed.), Lawrence Erlbaum Associates. D values are used when the scale of a dependent variable is not inherently meaningful, the difference between means are considered in standardized units. That is, effect size is measured in terms of the number of standard deviations by which the means differ. Two commonly used measures are Hedges' g and Cohen's d. Both of these measures consist of the difference between means divided by the standard deviation. They differ only in that Hedges' g uses the version of the standard deviation formula in which division is by N−1, whereas Cohen's d uses the version in which division is by N.
(§5) Covariance is a measure of how much two variables change together and how strong the relationship is between them (Lenth, R. V., The American Statistician (2001) 55:187-193). Analysis of covariance (ANCOVA) is a general linear model which blends analysis of variance (ANOVA) and regression. ANCOVA evaluates whether population means of a dependent variable (DV) are equal across levels of a categorical independent variable (IV), while statistically controlling for the effects of other continuous variables that are not of primary interest, known as covariates (CV). Therefore, when performing ANCOVA, the DV means are adjusted to what they would be if all groups were equal on the CV. In the CGI-I assay, Day 7 was used as the baseline value; in the remaining assays, Day 0 was used as baseline.

[3] = tested on: patients with symptomatic MDD; experiment: Symptoms of Depression Questionnaire (SDQ), Phase 1B study; conditions: for Cohen's d value, SDQ (ANCOVA): all test groups (n=18) vs placebo (n=6)
Experimental: as §1, §2, §3, §4, §5

[4] = tested on: patients with symptomatic MDD; experiment: Cognitive and Physical Functioning Questionnaire (CPFQ), Phase 1B study; conditions: FIG. 4
[5] = Day 14, 1x = 40 mg/day oral (n=6)
[6] = Day 14, 2x = 80 mg/day oral (n=6)
[7] = Day 14, 3x = 120 mg/day oral (n=6)
[8] = Day 14, all three dose groups pooled (n=18)
[9] = Day 28, 1x = 40 mg/day oral (n=6)
[10] = Day 28, 2x = 80 mg/day oral (n=6)
[11] = Day 28, 3x = 120 mg/day oral (n=6)
[12] = Day 28, all three dose groups pooled (n=18)
[13] = Day 56 (follow-up after 28 days dosing), 1x = 40 mg/day oral
[14] = Day 56 (follow-up after 28 days dosing), 2x = 80 mg/day oral
[15] = Day 56 (follow-up after 28 days dosing), 3x = 120 mg/day oral
[16] = Day 56 (follow-up after 28 days dosing), all three dose groups pooled (n=18)
[17] = Day 84 (follow-up after 28 days dosing), 1x = 40 mg/day oral
[18] = Day 84 (follow-up after 28 days dosing), 2x = 80 mg/day oral
[19] = Day 84 (follow-up after 28 days dosing), 3x = 120 mg/day oral
[20] = Day 84 (follow-up after 28 days dosing), all three dose groups pooled
[21] = Day −5 (baseline before dosing), 1x = 40 mg/day group
[22] = Day −5 (baseline before dosing), 2x = 80 mg/day group
[23] = Day −5 (baseline before dosing), 3x = 120 mg/day group
[24] = Day −5 (baseline before dosing), all three dose groups pooled (n=18)

CC(C)CCNc1ncccc1C(=O)N1CCN(Cc2ccccc2)CC1 [formula (1)]
qEEG high frequency α (HFα), amplitude and coherence measures [1]: increased HFα | CPFQ value ([2]; 80 mg/day, FIG. 4, controls (n=2) 4.6): 2.6 | Cohen's d value, CPFQ (ANCOVA) ([2]; 30 days): 0.94 | CPFQ Means [2, 5]: 3.3095 | CPFQ Means [2, 6]: 3.2143 | CPFQ Means [2, 7]: 3 | CPFQ Means [2, 8]: 3.1746 | CPFQ Means [2, 9]: 2.7857 | CPFQ Means [2, 10]: 2.6905 | CPFQ Means [2, 11]: 2.6667 | CPFQ Means [2, 12]: 2.7143 | CPFQ Means [2, 13]: 2.9048 | CPFQ Means [2, 14]: 2.3571 | CPFQ Means [2, 15]: 2.5714 | CPFQ Means [2, 16]: 2.6111 | CPFQ Means [2, 17]: 2.8571 | CPFQ Means [2, 18]: 2.4286 | CPFQ Means [2, 19]: 2.3714 | CPFQ Means [2, 20]: 2.563 | Cohen's d value, CPFQ (ANCOVA) ([2]; Day 85): 1.20 | CPFQ Means [2, 21]: 4.0238 | CPFQ Means [2, 22]: 3.4762 | CPFQ Means [2, 23]: 3.7143 | CPFQ Means [2, 24]: 3.7381 | SDQ score ([3]; 40 mg/day, FIG. 3, placebo (n=2) 3.1): 2.5 | SDQ score ([3]; 80 mg/day, FIG. 3, controls (n=2) 3.5): 2.7 | SDQ score versus controls ([3]; 120 mg/day, at 28 days, FIG. 3): slightly higher than controls | SDQ Means [3, 5]: 3.1174 | SDQ Means [3, 6]: 2.8485 | SDQ Means [3, 7]: 2.822 | SDQ Means [3, 8]: 2.9293 | SDQ Means [3, 9]: 2.5795 | SDQ Means [3, 10]: 2.6856 | SDQ Means [3, 11]: 2.6439 | SDQ Means [3, 12]: 2.6364 | Cohen's d value, SDQ (ANCOVA) ([3]; Day 30): 0.90 | SDQ Means [3, 13]: 2.6023 | SDQ Means [3, 14]: 2.3371 | SDQ Means [3, 15]: 2.5909 | SDQ Means [3, 16]: 2.5101 | SDQ Means [3, 17]: 2.6364 | SDQ Means [3, 18]: 2.4508 | SDQ Means [3, 19]: 2.4318 | SDQ Means [3, 20]: 2.5107 | Cohen's d value, SDQ (ANCOVA) ([3]; Day 85): 1.10 | SDQ Means [3, 21]: 3.4508 | SDQ Means [3, 22]: 3.2652 | SDQ Means [3, 23]: 3.4242 | SDQ Means [3, 24]: 3.3801 | CPFQ value ([4]; 40 mg/day, control group (n=2) 3.75): 2.8 | CPFQ value ([4]; 120 mg/day, controls (n=2) 3.3): 2.6
